Test results: US9622977B2, “Sustained release drug delivery system” (BIOPLUS LIFE SCIENCES PVT, LTD., priority 2008, dated 2017)
Where two headings read alike, the source gives them in different places. Each block holds one compound with its values, some of them ahead of it.

Tests used:
[1] = rat; for % Dose recovered: 6-CF, oral
[2] = Acyclovir IR 400 mg single dose; From Ref. 35; cited from earlier work
in vivo = settings: Sprague-Dawley, rat, po
Procedure: Rats were kept on fasting 12 hours before drug administration and until 24 hours post dosing. Water ad libitum was given throughout the study. […] Second, third, fourth, fifth and sixth group received oral administration of chitosan, thiolated chitosan, trimethyl chitosan, CARBOPOL® or METHOCEL® microspheres, respectively. […] Supernatant was collected and acetonitrile was added to precipitate the proteins. The precipitated proteins were settled by centrifugation at 2000 rpm for 15 min. The supernatant was collected and filtered through a 0.45 μm filter into volumetric flask and drug concentration was determined by spectrofluorometric assay.

[3] = In vitro drug release study of microspheres (USP paddle); format: physicochemical; settings: HCl buffer pH 1.2, first hr
Procedure: 900 ml of HCl buffer (pH 1.2) was used as dissolution medium for first hr and phosphate buffered saline (PBS, pH 6.8) was used for next 11 hrs. The dried microspheres were filled in hard gelatin capsules and were placed in dissolution vessels. 5 ml sample was withdrawn at various time intervals and volume of the media was replenished with an equal amount of dissolution media. The samples were then analyzed spectroflurometrically.

Erythrocytes = assay: Hemolytic toxicity assay; format: cell-based; settings: 1 hr of incubation at 37°C, water = 100%
Procedure: The procedure from literature was followed to perform the hemolytic toxicity studies.^19 Blood from healthy donors was collected and anticogulated with 3% sodium citrate. Erythrocytes were separated from blood plasma by centrifugation (3000×g, 5 min) and suspended in phosphate buffer saline (PBS) of pH 7.4. […] 0.5 ml 2% w/v dispersion of microspheres formulations in PBS (pH 7.4) was added to 4.5 ml of normal saline and interacted with 1 ml RBC suspension. […] After 1 hr, mixture was centrifuged and supernatants were taken and diluted with an equal volume of normal saline and absorbance was taken at 540 nm against supernatant of normal saline diluted similarly as blank. The percentage hemolysis was thus determined for each sample by taking absorbance of water as 100% hemolytic sample.

[4] = oral; cited from earlier work

% Dose recovered ([1]; 1. Stomach, 2 hr): 52.2%
% Dose recovered ([1]; 1. Stomach, 6 hr): 0%
% Dose recovered ([1]; 1. Stomach, 8 hr): 0%
% Dose recovered ([1]; 1. Stomach, 10 hr): 0%
% Dose recovered ([1]; 2. Duodenum, 2 hr): 10.9%
% Dose recovered ([1]; 2. Duodenum, 4 hr): 19.5%
% Dose recovered ([1]; 2. Duodenum, 6 hr): 0%
% Dose recovered ([1]; 2. Duodenum, 8 hr): 0%
% Dose recovered ([1]; 2. Duodenum, 10 hr): 0%
% Dose recovered ([1]; 3. Jejunum, 2 hr): 0%
% Dose recovered ([1]; 3. Jejunum, 4 hr): 10.6%
% Dose recovered ([1]; 3. Jejunum, 6 hr): 0%
% Dose recovered ([1]; 3. Jejunum, 8 hr): 0%
% Dose recovered ([1]; 3. Jejunum, 10 hr): 0%
% Dose recovered ([1]; 4. Jejunum, 2 hr): 0%
% Dose recovered ([1]; 4. Jejunum, 4 hr): 5.8%
% Dose recovered ([1]; 4. Jejunum, 6 hr): 6.9%
% Dose recovered ([1]; 4. Jejunum, 8 hr): 0%
% Dose recovered ([1]; 4. Jejunum, 10 hr): 0%
% Dose recovered ([1]; 5. Jejunum, 2 hr): 0%
% Dose recovered ([1]; 5. Jejunum, 4 hr): 0%
% Dose recovered ([1]; 5. Jejunum, 6 hr): 3.9%
% Dose recovered ([1]; 5. Jejunum, 8 hr): 0%
% Dose recovered ([1]; 5. Jejunum, 10 hr): 0%
% Dose recovered ([1]; 6. Ileum, 2 hr): 0%
% Dose recovered ([1]; 6. Ileum, 4 hr): 0%
% Dose recovered ([1]; 6. Ileum, 6 hr): 0%
% Dose recovered ([1]; 6. Ileum, 8 hr): 5.9%
% Dose recovered ([1]; 6. Ileum, 10 hr): 0%
% Dose recovered ([1]; 7. Remaining Intestine, 2 hr): 0%
% Dose recovered ([1]; 7. Remaining Intestine, 4 hr): 0%
% Dose recovered ([1]; 7. Remaining Intestine, 6 hr): 0%
% Dose recovered ([1]; 7. Remaining Intestine, 8 hr): 0%
% Dose recovered ([1]; 7. Remaining Intestine, 10 hr): 0%
% recovered from stomach following oral administration ([1]; time not stated): more than 30%
Compound: O=C(O)c1ccc2c(c1)C1(OC2=O)c2ccc(O)cc2Oc2cc(O)ccc21 [6-CF solution, 6-Carboxyfluorescein]

AUC (in vivo): 282 ± 28 ng·h/mL
Cmax (in vivo; 5 mg/kg): 53.1 ± 6.8 ng/mL
MRT (in vivo; 5 mg/kg): 5.4 ± 0.5 h
bioavailability (in vivo; 5 mg/kg): 100%
% drug released in first 1 hr [3]: 95.3±4.1%
Compound: Nc1nc2c(ncn2COCCO)c(=O)[nH]1 [Acyclovir]
Area under plasma concentration profile (AUC) [2]: 3.3075 µg·h/mL
Time to maximum plasma concentration (tmax) [2]: 1.4 h
% Hemolysis (Erythrocytes): 10.2 ± 1.4%
bioavailability [4]: 10-20%

Compound: Cn1c(=O)c2[nH]cnc2n(C)c1=O [theophylline]
bioavailability [4]: 100%
